We go through eleven compounds from ChEMBL document CHEMBL1201862, “PubChem BioAssay data set” (2004).

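Five concentrations, 48 hours, 96-well plates. Abbreviation: GI50, concentration required for 50% inhibition of growth.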 Activity calls are given as the source filed them. No stated cut-off is given here; in the data, active = GI50 up to about 1.1 µM and inactive = higher.

Some test systems named below: EKVX; HCT-116; RPMI-8226; NCI-H226; OVCAR-8; NCI/ADR-RES; SF-268; A498; HT-29; RXF 393; CCRF-CEM; HOP-92; OVCAR-3; HOP-62; HL-60; KM12; A549; Hs-578T; SK-MEL-2; HCC 2998.
Test in all cases: inhibition of tumour cell growth, NCI panel, 48 h

`CSc1nc(C)c2c(n1)SCC2`: the GI50 in the test on EKVX, in the test on HCT-116, in the test with RPMI-8226, with NCI-H226, in the test on OVCAR-8 and in the test on NCI/ADR-RES was > 10 µM (inactive) in each case. The GI50 in the test on SF-268, with A498, with HT-29, in the test with RXF 393, in the test with CCRF-CEM and with HOP-92 was > 10 µM (inactive) in each case. The GI50 in the test with OVCAR-3 was > 10 µM (inactive); in the test with HOP-62 it was > 10 µM (inactive); in the test with HL-60, > 10 µM (inactive); in the test on KM12, > 10 µM (inactive); in the test on A549 it was > 10 µM (inactive); in the test on Hs-578T it was 2.52 µM (inactive).

Consider `CC(O)C1(CNc2cc(Cl)nc(N)n2)CCCCC1` (stereo not drawn), for which the GI50 in the test with EKVX was 58.1 µM (inactive); in the test with HCT-116, > 100 µM (inactive); in the test on SK-MEL-2, > 100 µM (inactive); with RPMI-8226, 48.9 µM (inactive); in the test on NCI-H226, > 100 µM (inactive); in the test with OVCAR-8, > 100 µM (inactive). Moreover, the GI50 with NCI/ADR-RES was 58.2 µM (inactive); with SF-268, > 100 µM (inactive); in the test on A498 it was 39.3 µM (inactive); in the test with HT-29, > 100 µM (inactive); with RXF 393, > 100 µM (inactive); with CCRF-CEM it was 97.5 µM (inactive). In addition, the GI50 in the test on HOP-92 was 69.3 µM (inactive); in the test on OVCAR-3, > 100 µM (inactive); in the test with HOP-62, > 100 µM (inactive); with HL-60 it was 89.7 µM (inactive); with KM12, 85.3 µM (inactive); in the test on A549 it was 77.6 µM (inactive). The GI50 with Hs-578T is > 100 µM (inactive).

With `OCc1cc2c(ccc3sc4ccc5sc6ccc7ncccc7c6c5c4c32)s1`, the GI50 was 12.4 µM (inactive) with EKVX; 8.47 µM (inactive) in the test on HCT-116; 14.5 µM (inactive) with SK-MEL-2; 13.6 µM (inactive) with RPMI-8226; 30.1 µM (inactive) in the test with NCI-H226; 12.1 µM (inactive) with OVCAR-8. Further, the GI50 is 21.7 µM (inactive) with NCI/ADR-RES; 23.5 µM (inactive) in the test on A498; 15.5 µM (inactive) in the test on HT-29; 11.7 µM (inactive) in the test on RXF 393; 19.7 µM (inactive) in the test on CCRF-CEM; 29.6 µM (inactive) with HOP-92. The GI50 was 16.9 µM (inactive) in the test with OVCAR-3; 12.7 µM (inactive) with HOP-62; 10.1 µM (inactive) with HL-60; 6.47 µM (inactive) in the test with KM12; 11.4 µM (inactive) with A549; 8.53 µM (inactive) in the test with Hs-578T.

With `Nc1ncnc2c1ncn2C1OC(C(=O)OCCO)C(O)C1O` (stereo not drawn), the GI50 in the test with EKVX, in the test on HCT-116, in the test with SK-MEL-2, with RPMI-8226, with NCI-H226 and with OVCAR-8 was > 100 µM (inactive) each time. Besides, the GI50 in the test with NCI/ADR-RES, in the test with SF-268, in the test with A498, in the test on HT-29, with RXF 393 and with CCRF-CEM was > 100 µM (inactive) in each case. For the same compound, the GI50 in the test on HOP-92, in the test with OVCAR-3, in the test with HOP-62, in the test on HL-60, with KM12 and in the test with A549 was > 100 µM (inactive) throughout. Besides, the GI50 in the test with Hs-578T is > 100 µM (inactive).

Consider `CCOC(=O)c1ccc2c(=O)n3c(C(=O)OCC)ccc3c(=O)n12`, for which the GI50 in the test with EKVX, in the test on HCT-116, in the test with SK-MEL-2, with RPMI-8226, in the test on NCI-H226 and in the test with OVCAR-8 was > 100 µM (inactive) throughout. Further, the GI50 in the test with NCI/ADR-RES, with SF-268, in the test with A498, with HT-29, in the test with RXF 393 and in the test on CCRF-CEM was > 100 µM (inactive) in each case. For the same compound, the GI50 in the test with OVCAR-3, in the test on HCC 2998, with HOP-62, with HL-60, in the test with KM12 and with A549 was > 100 µM (inactive) each time. Further, the GI50 in the test on Hs-578T is > 100 µM (inactive).

Take `CCOC(=O)C1(C/C=C\CBr)CCCCCCC1=O` (stereo not drawn): the GI50 in the test on EKVX, with HCT-116, in the test with SK-MEL-2, in the test on NCI-H226, in the test on OVCAR-8 and with NCI/ADR-RES was > 100 µM (inactive) in each case. For the same compound, the GI50 with SF-268, in the test on A498, with HT-29, with RXF 393, in the test with CCRF-CEM and in the test on HOP-62 was > 100 µM (inactive) throughout. For the same compound, the GI50 in the test with HL-60, in the test with KM12, in the test with A549 and in the test with Hs-578T was > 100 µM (inactive) throughout.

For `NC(=O)C1CCCN1C(=O)C(Cc1c[nH]cn1)NC(=O)C1CCCC1` (stereo not drawn), the GI50 in the test with EKVX, in the test with HCT-116, with RPMI-8226, in the test with NCI-H226, with OVCAR-8 and in the test with NCI/ADR-RES was > 100 µM (inactive) each time. The GI50 in the test with A498 was 23.4 µM (inactive); in the test with HT-29, > 100 µM (inactive); with RXF 393 it was > 100 µM (inactive); with CCRF-CEM, > 100 µM (inactive); in the test on HOP-92 it was > 100 µM (inactive); in the test with OVCAR-3, > 100 µM (inactive). Also, the GI50 in the test on HCC 2998, in the test with HOP-62, in the test on HL-60, with KM12, in the test on A549 and in the test on Hs-578T was > 100 µM (inactive) each time.

For `C=CCN(c1cc(OC)c2[nH]c(C(=O)O)c(C)c2c1[N+](=O)[O-])S(C)(=O)=O`, the GI50 in the test on EKVX, in the test with HCT-116, with SK-MEL-2, with RPMI-8226, in the test on NCI-H226 and with OVCAR-8 was > 100 µM (inactive) in each case. The GI50 in the test on NCI/ADR-RES, with SF-268, in the test on A498, with RXF 393, in the test on CCRF-CEM and in the test with OVCAR-3 was > 100 µM (inactive) in each case. Also, the GI50 with HCC 2998, in the test with HOP-62, with HL-60, in the test on KM12, in the test on A549 and with Hs-578T was > 100 µM (inactive) throughout.

Turning to `CO/C(=N\N=C(/C)C(F)(F)F)c1ccncc1`, the GI50 in the test with HCT-116, in the test with SK-MEL-2, with RPMI-8226, with NCI-H226, in the test with OVCAR-8 and in the test with NCI/ADR-RES was > 100 µM (inactive) in each case. For the same compound, the GI50 in the test on A498 was 15.5 µM (inactive); with HT-29, > 100 µM (inactive); with RXF 393, > 100 µM (inactive); in the test with CCRF-CEM, > 100 µM (inactive); in the test on HOP-92, > 100 µM (inactive); in the test on OVCAR-3, > 100 µM (inactive). Besides, the GI50 with HOP-62, in the test on HL-60, in the test with KM12 and in the test with Hs-578T was > 100 µM (inactive) each time.

In the case of `C(/C=N/c1ccccc1)=C(/Nc1ccccc1)c1ccc2ccccc2c1`, the GI50 in the test on HCT-116 is 1.87 µM (inactive); with SK-MEL-2, 5.55 µM (inactive); with RPMI-8226 it was 1.79 µM (inactive); in the test with NCI-H226 it was 1.77 µM (inactive); with OVCAR-8 it was 3.61 µM (inactive); in the test with NCI/ADR-RES it was 1.5 µM (inactive). Further, the GI50 in the test on SF-268 is 4.71 µM (inactive); with A498 it was 12.4 µM (inactive); in the test with HT-29, 1.77 µM (inactive); in the test with RXF 393, 1.66 µM (inactive); with CCRF-CEM, 1.1 µM (active); in the test with HOP-92 it was 9.62 µM (inactive). The GI50 in the test on OVCAR-3 was 1.46 µM (inactive); with HOP-62 it was 1.82 µM (inactive); in the test on HL-60 it was 1.5 µM (inactive); with KM12, 1.78 µM (inactive); with A549 it was 4.08 µM (inactive); with Hs-578T, 2.58 µM (inactive).

As to `COC1/C=C/C(C)C(OC)CC(O)/C=C/C(C)C(C(C)C(OC)C(C)CCC(=O)C(C)C(C/C=C/N(C)C=O)OC)OC(=O)/C=C/C=C(\C)CC(OC)C(OC)C2=CC(=O)O[C@@H](C(C)C(OC)C1)[C@H]2O` (stereo partly drawn), the GI50 in the test on EKVX was 0.08 µM (active); with HCT-116 it was 0.00847 µM (active); in the test with RPMI-8226, 0.346 µM (active); in the test on NCI-H226, 0.0194 µM (active); with OVCAR-8, 0.0514 µM (active); in the test on NCI/ADR-RES, 0.0522 µM (active). For the same compound, the GI50 is 0.0442 µM (active) with SF-268; 0.0289 µM (active) in the test with A498; 0.0356 µM (active) in the test on HT-29; 0.039 µM (active) in the test with RXF 393; 0.0499 µM (active) in the test with CCRF-CEM; 0.0327 µM (active) with HOP-92. Further, the GI50 in the test on OVCAR-3 was 0.00596 µM (active); in the test with HCC 2998, 0.0182 µM (active); with HOP-62, 0.0324 µM (active); in the test with HL-60, 0.0299 µM (active); in the test on KM12, 0.0399 µM (active); with A549, 0.0518 µM (active). In the test on Hs-578T, the GI50 was 0.0307 µM (active).
